Values after ≈ are worked out from the molar mass of the structure shown. Read-outs that look alike come from different tables or passages of the source.
Legend:
[1] = tested on: Staphylococcus aureus fluoroquinolone-susceptible; test: MIC, 25 ocular isolates, broth microdilution (Example 8); format: cell-based
Protocol: • Mueller-Hinton Broth in tubes was inoculated with 25 ocular isolates of Staphylococcus aureus fluoroquinolone-susceptible, Staphylococcus aureus fluoroquinolone-resistant, Staphylococcus epidermidis (Coagulase-negative Staphylococcus) fluoroquinolone-susceptible, Staphylococcus epidermidis (Coagulase-negative Staphylococcus) fluoroquinolone-resistant, Pseudomonas aeruginosa and Serratia marcescens, plus two controls (Staphylococcus aureus and E. coli) and incubated at 37° C. overnight on a shaker set at 250 rpm.
(§1) On the day of testing, a 640 μg/ml (1280 μg/ml for Serratia marcescens and Pseudomonas aeruginosa) concentration was prepared from a 1% stock solution in 0.01% acetic acid, 0.2% BSA in polypropylene tubes.
(§2) Serial doubling dilutions in 0.01% acetic acid, 0.2% BSA in 96 well polypropylene plates, which are used as reservoirs for the inoculation of the test plates, were carried out to obtain serial dilutions of test agents at 10 times the required test concentrations: 640, 320, 160, 80, 40, 20, 10, 5, 2.5, 1.25, and 0.625 μg/ml (1280, 640, 320, 160, 80, 40, 20, 10, 5, 2.5, and 1.25 μg/ml for Serratia marcescens and Pseudomonas aeruginosa).
(§3) Ten μl of diluted 10×test agents was added to each well of one row of the 96 well polypropylene plates from column 2 to column 12 (column 1 is a control for bacteria alone, with no peptide). Test agent concentrations in columns 2-12 were as follows: 64, 32, 16, 8, 4, 2, 1, 0.5, 0.25, 0.125, and 0.0625 μg/ml (128, 64, 32, 16, 8, 4, 2, 1, 0.5, 0.25, and 0.125 μg/ml for Serratia marcescens and Pseudomonas aeruginosa). The same peptide was in each of the 8 rows. One plate contained dilutions of one test agent and 8 bacterial isolates.
On the day of testing, the overnight bacterial broth cultures of Staphylococcus aureus fluoroquinolone-susceptible, Staphylococcus aureus fluoroquinolone-resistant, Staphylococcus epidermidis (Coagulase-negative Staphylococcus) fluoroquinolone-susceptible, Staphylococcus epidermidis (Coagulase-negative Staphylococcus) fluoroquinolone-resistant, Serratia marcescens, and Pseudomonas aeruginosa, plus two controls (Staphylococcus aureus and E. coli) were diluted in 5 ml of trypticase soy broth to yield turbidity equal to a 0.5 McFarland standard. The final inoculum for MIC testing for Staphylococcus aureus fluoroquinolone-susceptible, Staphylococcus aureus fluoroquinolone-resistant, Staphylococcus epidermidis (Coagulase-negative Staphylococcus) fluoroquinolone-susceptible, Staphylococcus epidermidis (Coagulase-negative Staphylococcus) fluoroquinolone-resistant, Serratia marcescens, and Pseudomonas aeruginosa was achieved by placing 0.05 ml of the turbidity adjusted sample to 5 ml of Mueller-Hinton broth.
(§4) Ninety μl of the bacterial suspensions was dispensed in each well from column 1 to column 12. Each bacterial isolate was placed in one row of a 96 well polypropylene plate containing the test agents. The plates were placed on shaker at 15 minutes at room temperature, and then incubated at 37° C. overnight. MICs were determined visually as the lowest concentration of drug that inhibits visible bacterial growth.

Haemophilus influenzae = test: as above; format: cell-based
Protocol: HTM (Haemophilus Test Medium) in tubes was inoculated with 25 ocular isolates of Haemophilus influenzae plus two controls (Staphylococcus aureus and E. coli) and incubated at 37° C. overnight. Additionally, Mueller-Hinton Broth in tubes was inoculated with two controls (Staphylococcus aureus and E. coli) and incubated at 37° C. overnight on a shaker set at 250 rpm.
as §1, §2, §3
On the day of testing, the overnight bacterial broth cultures of Haemophilus species was diluted in 5 ml of trypticase soy broth to yield turbidity equal to a 0.5 McFarland standard. The final inoculum for MIC testing for Haemophilus species was achieved by placing 0.1 ml of the turbidity adjusted sample to 5 ml of HTM medium.
as §4

[2] = Haemophilus influenzae, n=25 isolates, >64 replaced with 128

## N=C(N)NCCCCC(=O)Nc1cc(C(F)(F)F)cc(NC(=O)c2cnc(C(=O)Nc3cc(C(F)(F)F)cc(NC(=O)CCCCNC(=N)N)c3SCCN)cn2)c1SCCN [Oligomer 5]
[1]; 25 isolates, Row 13
  MIC50: 0.25 µg/mL (≈ 0.273 µM)
[1]; 25 isolates, Row 22
  MIC90: 0.25 µg/mL (≈ 0.273 µM)
[1]; 25 isolates, Summary of Results
  Range of MICs: 0.125 to 0.5 µg/mL
[1]; Staphylococcus aureus, 25 ocular isolates, read-out: Median MIC
  MIC: ≤ 0.25 µg/mL
[1]; Staphylococcus aureus, isolate 1—E402, read-out: MIC
  MIC: 0.5 µg/mL (≈ 0.545 µM)
[1]; Staphylococcus aureus, isolate 2—E1512, read-out: MIC
  MIC: 0.25 µg/mL (≈ 0.273 µM)
[1]; Staphylococcus aureus, isolate 3—E253, read-out: MIC
  MIC: 0.25 µg/mL (≈ 0.273 µM)
[1]; Staphylococcus aureus, isolate 4—K1518, read-out: MIC
  MIC: 0.125 µg/mL (≈ 0.136 µM)
[1]; Staphylococcus aureus, isolate 5—K1525, read-out: MIC
  MIC: 0.125 µg/mL (≈ 0.136 µM)
[1]; Staphylococcus aureus, isolate 6—K1663, read-out: MIC
  MIC: 0.125 µg/mL (≈ 0.136 µM)
[1]; Staphylococcus aureus, isolate 7—K1648, read-out: MIC
  MIC: 0.125 µg/mL (≈ 0.136 µM)
[1]; Staphylococcus aureus, isolate 8—K1646, read-out: MIC
  MIC: 0.25 µg/mL (≈ 0.273 µM)
[1]; Staphylococcus aureus, isolate 9—K1642, read-out: MIC
  MIC: 0.25 µg/mL (≈ 0.273 µM)
[1]; Staphylococcus aureus, isolate 10—K1638, read-out: MIC
  MIC: 0.25 µg/mL (≈ 0.273 µM)
[1]; Staphylococcus aureus, isolate 11—K1628, read-out: MIC
  MIC: 0.25 µg/mL (≈ 0.273 µM)
[1]; Staphylococcus aureus, isolate 12—K1618, read-out: MIC
  MIC: 0.125 µg/mL (≈ 0.136 µM)
[1]; Staphylococcus aureus, isolate 13—K1617, read-out: MIC
  MIC: 0.25 µg/mL (≈ 0.273 µM)
[1]; Staphylococcus aureus, isolate 14—K1611, read-out: MIC
  MIC: 0.25 µg/mL (≈ 0.273 µM)
[1]; Staphylococcus aureus, isolate 15—K1607, read-out: MIC
  MIC: 0.25 µg/mL (≈ 0.273 µM)
[1]; Staphylococcus aureus, isolate 16—K1600, read-out: MIC
  MIC: 0.125 µg/mL (≈ 0.136 µM)
[1]; Staphylococcus aureus, isolate 17—K1591, read-out: MIC
  MIC: 0.5 µg/mL (≈ 0.545 µM)
[1]; Staphylococcus aureus, isolate 18—K1585, read-out: MIC
  MIC: 0.25 µg/mL (≈ 0.273 µM)
[1]; Staphylococcus aureus, isolate 19—K1583, read-out: MIC
  MIC: 0.25 µg/mL (≈ 0.273 µM)
[1]; Staphylococcus aureus, isolate 20—K1574, read-out: MIC
  MIC: 0.25 µg/mL (≈ 0.273 µM)
[1]; Staphylococcus aureus, isolate 21—K1566, read-out: MIC
  MIC: 0.25 µg/mL (≈ 0.273 µM)
[1]; Staphylococcus aureus, isolate 22—K1551, read-out: MIC
  MIC: 0.125 µg/mL (≈ 0.136 µM)
[1]; Staphylococcus aureus, isolate 23—K1545, read-out: MIC
  MIC: 0.25 µg/mL (≈ 0.273 µM)
[1]; Staphylococcus aureus, isolate 24—K1540, read-out: MIC
  MIC: 0.25 µg/mL (≈ 0.273 µM)
[1]; Staphylococcus aureus, isolate 25—K1530, read-out: MIC
  MIC: 0.5 µg/mL (≈ 0.545 µM)
[1]; Staphylococcus aureus, n=25 per group, read-out: Median MIC
  MIC: 0.25 µg/mL (≈ 0.273 µM)
[1]; Staphylococcus aureus, 25 isolates, Summary of Results, read-out: MIC50
  MIC50: 0.25 µg/mL (≈ 0.273 µM)
[1]; Staphylococcus aureus, 25 isolates, Summary of Results, read-out: MIC90
  MIC90: 0.5 µg/mL (≈ 0.545 µM)
[1]; Staphylococcus aureus, 25 isolates, Summary of Results, read-out: Median MIC
  MIC: 0.25 µg/mL (≈ 0.273 µM)
[1]; n=25 per group
  MIC50: 0.25 µg/mL (≈ 0.273 µM)
  MIC90: 0.5 µg/mL (≈ 0.545 µM)
  Range of MICs: 0.125 to 0.5 µg/mL
Haemophilus influenzae; Haemophilus influenzae, 25 ocular isolates, HTM medium, read-out: Median MIC
  MIC: 16 µg/mL (≈ 17.4 µM)
Haemophilus influenzae; Haemophilus influenzae, isolate 1 B1359, read-out: MIC
  MIC: > 64 µg/mL
Haemophilus influenzae; Haemophilus influenzae, isolate 2 B1346, read-out: MIC
  MIC: > 64 µg/mL
Haemophilus influenzae; Haemophilus influenzae, isolate 3 B1345, read-out: MIC
  MIC: > 64 µg/mL
Haemophilus influenzae; Haemophilus influenzae, isolate 4 B1343, read-out: MIC
  MIC: > 64 µg/mL
Haemophilus influenzae; Haemophilus influenzae, isolate 5 B1338, read-out: MIC
  MIC: 16 µg/mL (≈ 17.4 µM)
Haemophilus influenzae; Haemophilus influenzae, isolate 6 B1332, read-out: MIC
  MIC: 64 µg/mL (≈ 69.8 µM)
Haemophilus influenzae; Haemophilus influenzae, isolate 7 B1331, read-out: MIC
  MIC: > 64 µg/mL
Haemophilus influenzae; Haemophilus influenzae, isolate 8 B1330, read-out: MIC
  MIC: > 64 µg/mL
Haemophilus influenzae; Haemophilus influenzae, isolate 9 B1379, read-out: MIC
  MIC: 8 µg/mL (≈ 8.72 µM)
Haemophilus influenzae; Haemophilus influenzae, isolate 10 B1378, read-out: MIC
  MIC: 4 µg/mL (≈ 4.36 µM)
Haemophilus influenzae; Haemophilus influenzae, isolate 11 B1313, read-out: MIC
  MIC: 2 µg/mL (≈ 2.18 µM)
Haemophilus influenzae; Haemophilus influenzae, isolate 12 B1477, read-out: MIC
  MIC: 4 µg/mL (≈ 4.36 µM)
Haemophilus influenzae; Haemophilus influenzae, isolate 13 B1286, read-out: MIC
  MIC: 2 µg/mL (≈ 2.18 µM)
Haemophilus influenzae; Haemophilus influenzae, isolate 14 B1282, read-out: MIC
  MIC: 8 µg/mL (≈ 8.72 µM)
Haemophilus influenzae; Haemophilus influenzae, isolate 15 B1291, read-out: MIC
  MIC: 16 µg/mL (≈ 17.4 µM)
Haemophilus influenzae; Haemophilus influenzae, isolate 16 B1280, read-out: MIC
  MIC: 16 µg/mL (≈ 17.4 µM)
Haemophilus influenzae; Haemophilus influenzae, isolate 17 B1279, read-out: MIC
  MIC: 64 µg/mL (≈ 69.8 µM)
Haemophilus influenzae; Haemophilus influenzae, isolate 18 B1260, read-out: MIC
  MIC: 16 µg/mL (≈ 17.4 µM)
Haemophilus influenzae; Haemophilus influenzae, isolate 19 B1238, read-out: MIC
  MIC: 8 µg/mL (≈ 8.72 µM)
Haemophilus influenzae; Haemophilus influenzae, isolate 20 B1209, read-out: MIC
  MIC: 8 µg/mL (≈ 8.72 µM)
Haemophilus influenzae; Haemophilus influenzae, isolate 21 B1249, read-out: MIC
  MIC: 16 µg/mL (≈ 17.4 µM)
Haemophilus influenzae; Haemophilus influenzae, isolate 22 B1248, read-out: MIC
  MIC: 4 µg/mL (≈ 4.36 µM)
Haemophilus influenzae; Haemophilus influenzae, isolate 23 B1244, read-out: MIC
  MIC: 32 µg/mL (≈ 34.9 µM)
Haemophilus influenzae; Haemophilus influenzae, isolate 24 B1419, read-out: MIC
  MIC: 32 µg/mL (≈ 34.9 µM)
Haemophilus influenzae; Haemophilus influenzae, isolate 25 B1222, read-out: MIC
  MIC: > 64 µg/mL
Haemophilus influenzae; [2]
  MIC50: 16 µg/mL (≈ 17.4 µM)
  MIC90: 128 µg/mL (≈ 140 µM)
Haemophilus influenzae; Haemophilus influenzae, n=25 isolates, >64 replaced with 128, read-out: Median MIC
  MIC: 16 µg/mL (≈ 17.4 µM)
Haemophilus influenzae; n=25 isolates, >64 replaced with 128
  Range of MICs: 2 to 128 µg/mL

— patent publication US20130065818A1, “Arylamide Compounds And Compositions And Uses Thereof” (POLYMEDIX, priority 2006, published 2013)
